In ChEMBL document CHEMBL1681651, “A broad spectrum anticancer nucleoside with selective toxicity against human colon cells in vitro” (2011):

Tests used:
Type in all cases: functional
[1] = test system: HCT-116; assay: Growth inhibition of human HCT116 cells assessed as cell growth at 1 uM after 48 hrs by SRB assay; details: HCT-116, 48 h, read-out: Activity
[2] = test system: SN12C; assay: Growth inhibition of human SN12C cells assessed as cell growth at 0.1 uM after 48 hrs by SRB assay; details: read-out: Activity
[3] = Growth inhibition of human […] cells assessed as cell growth at 1 uM after 48 hrs by SRB assay; details: read-out: Activity
[4] = test system: HT-29; assay: Growth inhibition of human HT-29 cells assessed as cell growth at 1 uM after 48 hrs by SRB assay; details: HT-29, 48 h, read-out: Activity
[5] = test system: KM12; assay: Growth inhibition of human KM12 cells after 48 hrs by […] growth inhibition assay; details: KM12, 48 h
[6] = test system: Malme-3M; assay: Growth inhibition of human MALME-3M cells assessed as cell growth at 1 uM after 48 hrs by SRB assay; details: read-out: Activity
[7] = test system: CCRF-CEM; assay: Growth inhibition of human CCRF-CEM cells after 48 hrs by […] growth inhibition assay
[8] = test system: NCI-H522; assay: Growth inhibition of human NCI-H522 cells after 48 hrs by […] growth inhibition assay; details: NCI-H522, 48 h
[9] = test system: UO-31; assay: Growth inhibition of human UO31 cells assessed as cell growth at 100 uM after 48 hrs by SRB assay; details: UO-31, 48 h, read-out: Activity
[10] = test system: OVCAR-3; assay: Growth inhibition of human OVCAR3 cells after 48 hrs by […] growth inhibition assay; details: OVCAR-3, 48 h
[11] = test system: SK-OV-3; assay: Growth inhibition of human SKOV3 cells assessed as cell growth at 100 uM after 48 hrs by SRB assay; details: SK-OV-3, 48 h, read-out: Activity
[12] = test system: SF-295; assay: Growth inhibition of human SF295 cells assessed as cell growth at 1 uM after 48 hrs by SRB assay; details: SF-295, 48 h, read-out: Activity
[13] = test system: KM12; assay: Growth inhibition of human KM12 cells assessed as cell growth at 0.1 uM after 48 hrs by SRB assay; details: KM12, 48 h, read-out: Activity
[14] = test system: ACHN; assay: Growth inhibition of human ACHN cells after 48 hrs by […] growth inhibition assay
[15] = test system: OVCAR-4; assay: Growth inhibition of human OVCAR4 cells assessed as cell growth at 0.1 uM after 48 hrs by SRB assay; details: OVCAR-4, 48 h, read-out: Activity
[16] = test system: U-251; assay: Growth inhibition of human U251 cells assessed as cell growth at 1 mM after 48 hrs by SRB assay; details: U-251, 48 h, read-out: Activity
[17] = test system: A498; assay: Growth inhibition of human A498 cells assessed as cell growth at 1 uM after 48 hrs by SRB assay; details: A498, 48 h, read-out: Activity
[18] = test system: COLO 205; assay: Growth inhibition of human COLO205 cells assessed as cell growth at 0.1 uM after 48 hrs by SRB assay; details: COLO 205, 48 h, read-out: Activity
[19] = test system: KM12; assay: Growth inhibition of human KM12 cells assessed as cell growth at 1 uM after 48 hrs by SRB assay; details: KM12, 48 h, read-out: Activity
[20] = test system: NCI-H522; assay: Growth inhibition of human NCI-H522 cells assessed as cell growth at 100 uM after 48 hrs by SRB assay; details: NCI-H522, 48 h, read-out: Activity
[21] = test system: SF-539; assay: Growth inhibition of human SF539 cells assessed as cell growth at 0.1 uM after 48 hrs by SRB assay; details: SF-539, 48 h, read-out: Activity
[22] = test system: PC-3; assay: Growth inhibition of human PC3 cells assessed as cell growth at 10 uM after 48 hrs by SRB assay; details: PC-3, 48 h, read-out: Activity
[23] = test system: UACC-62; assay: Growth inhibition of human UACC62 cells assessed as cell growth at 10 uM after 48 hrs by SRB assay; details: UACC-62, 48 h, read-out: Activity
[24] = test system: HCT-116; assay: Growth inhibition of human HCT116 cells assessed as cell growth at 100 uM after 48 hrs by SRB assay; details: HCT-116, 48 h, read-out: Activity
[25] = test system: CAKI-1; assay: Growth inhibition of human Caki1 cells assessed as cell growth at 1 mM after 48 hrs by SRB assay; details: CAKI-1, 48 h, read-out: Activity
[26] = test system: SK-OV-3; assay: Growth inhibition of human SKOV3 cells assessed as cell growth at 0.1 uM after 48 hrs by SRB assay; details: SK-OV-3, 48 h, read-out: Activity
[27] = test system: U-251; assay: Growth inhibition of human U251 cells assessed as cell growth at 100 uM after 48 hrs by SRB assay; details: U-251, 48 h, read-out: Activity
[28] = test system: CAKI-1; assay: Growth inhibition of human Caki1 cells assessed as cell growth at 1 uM after 48 hrs by SRB assay; details: CAKI-1, 48 h, read-out: Activity
[29] = test system: HOP-92; assay: Growth inhibition of human HOP92 cells assessed as cell growth at 10 uM after 48 hrs by SRB assay; details: HOP-92, 48 h, read-out: Activity
[30] = test system: OVCAR-5; assay: Growth inhibition of human OVCAR5 cells assessed as cell growth at 1 mM after 48 hrs by SRB assay; details: OVCAR-5, 48 h, read-out: Activity
[31] = Growth inhibition of human […] cells assessed as cell growth at 0.1 uM after 48 hrs by SRB assay; details: read-out: Activity
[32] = test system: BT-549; assay: Growth inhibition of human BT549 cells assessed as cell growth at 1 uM after 48 hrs by SRB assay; details: BT-549, 48 h, read-out: Activity
[33] = test system: HT-29; assay: Growth inhibition of human HT-29 cells assessed as cell growth at 1 mM after 48 hrs by SRB assay; details: HT-29, 48 h, read-out: Activity
[34] = test system: DU-145; assay: Growth inhibition of human DU145 cells after 48 hrs by […] growth inhibition assay; details: DU-145, 48 h
[35] = Growth inhibition of human Hs 578T cells assessed as cell growth at 10 uM after 48 hrs by SRB assay; details: read-out: Activity
[36] = read-out: LC50 (the source's name)
[37] = read-out: pLC50 (the source's name) (converted)

Structure (SMILES): CNC(=O)NC[C@H]1O[C@@H](n2cnc3c(NC(=O)Nc4ccccc4)ncnc32)[C@H](O[Si](C)(C)C(C)(C)C)[C@@H]1O[Si](C)(C)C(C)(C)C
- growth at 1 µM [1]: 105%
- growth at 0.1 µM [2]: 100%
- growth at 1 µM [3]: 98%
- growth at 1 µM [4]: 104%
- GI50 ([5]; read-out: GI50): 2.13 µM
- CC50 [5, 36]: 8.05 µM
- TGI ([5]; read-out: TGI): 4.14 µM
- GI50 ([5]; read-out: pGI50 (converted)): 2.14 µM
- CC50 [5, 37]: 8.13 µM
- TGI ([5]; read-out: pTGI (converted)): 4.17 µM
- growth at 1 µM [6]: 98%
- GI50 ([7]; read-out: GI50): 3.59 µM
- LC50 (lethal concentration, 50% net cell kill) ([7]; read-out: LC50): > 100 µM
- TGI ([7]; read-out: TGI): > 100 µM
- GI50 ([7]; read-out: pGI50 (converted)): 3.63 µM
- LC50 (lethal concentration, 50% net cell kill) ([7]; read-out: pLC50 (converted)): > 100 µM
- TGI ([7]; read-out: pTGI (converted)): > 100 µM
- GI50 ([8]; read-out: GI50): 2.39 µM
- CC50 [8, 36]: > 100 µM
- TGI ([8]; read-out: TGI): 7.14 µM
- GI50 ([8]; read-out: pGI50 (converted)): 2.4 µM
- CC50 [8, 37]: > 100 µM
- TGI ([8]; read-out: pTGI (converted)): 7.08 µM
- growth at 100 µM [9]: -2%
- GI50 ([10]; read-out: GI50): 2.6 µM
- CC50 [10, 36]: 98.2 µM
- TGI ([10]; read-out: TGI): 5.54 µM
- GI50 ([10]; read-out: pGI50 (converted)): 2.63 µM
- CC50 [10, 37]: 97.7 µM
- TGI ([10]; read-out: pTGI (converted)): 5.5 µM
- growth at 100 µM [11]: 39%
- growth at 1 µM [12]: 107%
- growth at 0.1 µM [13]: 104%
- GI50 ([14]; read-out: GI50): 3.83 µM
- CC50 [14, 36]: > 100 µM
- TGI ([14]; read-out: TGI): > 100 µM
- GI50 ([14]; read-out: pGI50 (converted)): 3.8 µM
- CC50 [14, 37]: > 100 µM
- TGI ([14]; read-out: pTGI): > 100 µM
- growth at 0.1 µM [15]: 106%
- growth at 1000 µM [16]: -46%
- growth at 1 µM [17]: 97%
- growth at 0.1 µM [18]: 109%
- growth at 1 µM [19]: 111%
- growth at 100 µM [20]: -15%
- growth at 0.1 µM [21]: 100%
- growth at 10 µM [22]: 83%
- growth at 10 µM [23]: 90%
- growth at 100 µM [24]: -59%
- growth at 1000 µM [25]: -33%
- growth at 0.1 µM [26]: 108%
- growth at 100 µM [27]: 2%
- growth at 1 µM [28]: 99%
- growth at 10 µM [29]: 69%
- growth at 1000 µM [30]: -43%
- growth at 0.1 µM [31]: 102%
- growth at 1 µM [32]: 112%
- growth at 1000 µM [33]: -100%
- GI50 ([34]; read-out: GI50): 2.58 µM
- CC50 [34, 36]: 18.7 µM
- TGI ([34]; read-out: TGI): 5.71 µM
- GI50 ([34]; read-out: pGI50 (converted)): 2.57 µM
- CC50 [34, 37]: 18.6 µM
- TGI ([34]; read-out: pTGI (converted)): 5.75 µM

Structure (SMILES): CNC(=O)NC[C@H]1O[C@@H](n2cnc3c(NC(=O)Nc4ccccc4)ncnc32)[C@H](O[Si](C)(C)C(C)(C)C)[C@@H]1CC(=O)N(C)OC
- growth at 1 µM [1]: 90%
- growth at 0.1 µM [2]: 106%
- growth at 1 µM [3]: 91%
- growth at 1 µM [4]: 107%
- GI50 ([5]; read-out: GI50): 23.9 µM
- CC50 [5, 36]: > 100 µM
- TGI ([5]; read-out: TGI): > 100 µM
- GI50 ([5]; read-out: pGI50 (converted)): 24 µM
- CC50 [5, 37]: > 100 µM
- TGI ([5]; read-out: pTGI (converted)): > 100 µM
- growth at 1 µM [6]: 88%
- GI50 ([7]; read-out: GI50): 6.37 µM
- LC50 (lethal concentration, 50% net cell kill) ([7]; read-out: LC50): > 100 µM
- TGI ([7]; read-out: TGI): > 100 µM
- GI50 ([7]; read-out: pGI50 (converted)): 6.31 µM
- LC50 (lethal concentration, 50% net cell kill) ([7]; read-out: pLC50 (converted)): > 100 µM
- TGI ([7]; read-out: pTGI (converted)): > 100 µM
- GI50 ([8]; read-out: GI50): 11.1 µM
- CC50 [8, 36]: > 100 µM
- TGI ([8]; read-out: TGI): > 100 µM
- GI50 ([8]; read-out: pGI50 (converted)): 11 µM
- CC50 [8, 37]: > 100 µM
- TGI ([8]; read-out: pTGI (converted)): > 100 µM
- growth at 100 µM [9]: 46%
- GI50 ([10]; read-out: GI50): 7.11 µM
- CC50 [10, 36]: > 100 µM
- TGI ([10]; read-out: TGI): > 100 µM
- GI50 ([10]; read-out: pGI50 (converted)): 7.08 µM
- CC50 [10, 37]: > 100 µM
- TGI ([10]; read-out: pTGI (converted)): > 100 µM
- growth at 100 µM [11]: 82%
- growth at 1 µM [12]: 93%
- growth at 0.1 µM [13]: 101%
- GI50 ([14]; read-out: GI50): 14.4 µM
- CC50 [14, 36]: > 100 µM
- TGI ([14]; read-out: TGI): > 100 µM
- GI50 ([14]; read-out: pGI50 (converted)): 14.5 µM
- CC50 [14, 37]: > 100 µM
- TGI ([14]; read-out: pTGI): > 100 µM
- growth at 0.1 µM [15]: 100%
- growth at 1000 µM [16]: 25%
- growth at 1 µM [17]: 96%
- growth at 0.1 µM [18]: 97%
- growth at 1 µM [19]: 108%
- growth at 100 µM [20]: 51%
- growth at 0.1 µM [21]: 96%
- growth at 10 µM [23]: 96%
- growth at 100 µM [24]: 26%
- growth at 1000 µM [25]: 47%
- growth at 0.1 µM [26]: 96%
- growth at 100 µM [27]: 37%
- growth at 10 µM [35]: 82%
- growth at 1 µM [28]: 72%
- growth at 10 µM [29]: 67%
- growth at 1000 µM [30]: 35%
- growth at 0.1 µM [31]: 80%
- growth at 1 µM [32]: 98%
- growth at 1000 µM [33]: 17%
- GI50 ([34]; read-out: GI50): 16.6 µM
- CC50 [34, 36]: > 100 µM
- TGI ([34]; read-out: TGI): > 100 µM
- GI50 ([34]; read-out: pGI50 (converted)): 16.6 µM
- CC50 [34, 37]: > 100 µM
- TGI ([34]; read-out: pTGI (converted)): > 100 µM
